How the values were obtained:
[1] = tested on: normal uninjured rat carotid arteries (medial and adventitial cell populations); test: In vivo rat carotid artery acellularity after PDT; parameters: species or system Sprague Dawley rats; settings: for Max % rat Artery Accelularity: Table 3, drug dose 1 μMol, 50 J/cm^2, 3 days post treatment
Method in brief: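 Metallated photosensitizers light-activated in normal uninjured rat left common carotid via balloon catheter introduced through femoral arteriotomy under isoflurane; excitation 575 nm (Ga, Zn, Al, Sn) or 532 nm (Pt). Arteries harvested 3 days post-treatment, H&E-stained; medial and adventitial cell density assessed by light microscopy.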

[2] = tested on: balloon-injured pig coronary arteries; test: Pig coronary artery balloon injury model, 14 days (inhibition of neointima / intimal hyperplasia); format: in vivo; settings: for average inhibition of intimal hyperplasia over the length of the injured artery: pig coronary arteries; for Intimal hyperplasia Inhibition (14 days) Av. over injury: pig coronary artery balloon injury, drug dose 3 mg/Kg, 532 nm light, 55 J, 125 J/cm2, 250 mW
Experimental: Those photosensitizers showing excellent efficacy in the rat carotid artery model were evaluated in more detail in the pig coronary artery model (Waksman, R., Rodriguez, J. C., Robinson, K. A., Cipolla, G. D., Crocker, I. R., Scott, N. A. King, S. B., Wilcox, J. N., Circulation, 96, 1944-1952, 1997). If vascular PDT is to be proposed as a therapy to prevent restenosis in humans due to angioplasty or stenting, then it must first be shown to be effective in a large animal model such as the swine. Porcine coronary arteries are very similar to human coronary arteries with regard to size, neointima formation, and thrombosis in response to injury.
The swine model has been utilized in the preclinical evaluation of interventions to reduce restenosis for several reasons. Chief among these reasons are the similarities in (i) size and anatomy of the swine arteries to human arteries, that permits instrumentation and evaluation of results via catheters; and (ii) histopathological characteristics of the proliferative response following artery injury similar to that seen in humans. Furthermore, large animals including the swine have proven to be more predictive of success in reducing restenosis in humans than have small animal models. An extensive literature search (e.g., Weiner, B. H., et al. Circulation. 72:1081-1086,1985; Schwartz, R. S., et al. Circulation. 82:2190-2200, 1990; Vascular Brachytherapy, Veenendaal, The Netherlands:Nucletron B.V. 1996 pp.1-382) supports the notion that restenosis after balloon injury in porcine coronaries is the best model when compared to restenosis in humans. Therapies investigated in other species still must be confirmed in the porcine model. Several articles reviewing the relevant animal models for the study of restenosis have concluded that although imperfect, as are all animal models, the porcine model is still the best from the standpoint of similarity to human disease, ease of use, and cost (e.g., Schwartz, R. S., Murphy, J. G., Edwards, W. D., Camrud, A. R., Vlietstra, R. E., and Holmes, D. R. Restenosis after balloon angioplasty: A practical proliferative model in the porcine coronary arteries. Circulation. 82:2190-2200, 1990; Karas, S. P., Gravanis, M. B., Santoian, E. C., Robinson, K. A., and King, S. B., 3d Coronary intimal proliferation after balloon injury and stenting in swine: an animal model of restenosis. J.Am.Coll. Cardiology 20:467-474, 1992).
Photosensitizers were administered systemically (at doses typically 2-3.5 mg/kg body weight, in a soybean phospholipid formulation) as a slow bolus injection in the ear vein. Drug treatments were followed (1-4 hr later) by endovascular light treatment (50-250 J/cm^2 fluence and 100-300 mW/cm^2 irradiance) in uninjured coronary (50-250 J/cm^2 fluence and 100-300 mW/cm^2 irradiance) and iliac (50-350 J/cm^2 fluence and 100-450 mW/cm^2 irradiance) arteries. In another set of experiments, animals also received balloon injuries in the coronary arteries at the time of PDT treatment. Angioplasty injuries in 2 coronary arteries were performed. Vital signs and cardiovascular parameters such as ECG, HR, BP, were monitored together with arterio-angiograms for measurements of vessel patency.
For longer term efficacy experiments (14 days after the PDT experiments) animals were sacrificed and serial sections of all relevant arteries (coronaries only) were harvested in 10% formalin and processed for histological assessment. Representative arterial segments underwent parafin embedding and sectioning for Hemoxylin & Eosin and/or elastin staining. Slides were prepared for microscopy histological analysis of the (i) acute cellular responses and (ii) inhibition of neointima formation following treatment. Once prepared, the slides were analyzed via microscopy for histomorphometry and effects such as medial wall acellularity, arterial wall and surrounding tissue cell death and proliferation. […]

Row | Compound | Max % rat Artery Accelularity [1] | average inhibition of intimal hyperplasia over the length of the injured artery [2] | Intimal hyperplasia Inhibition (14 days) Av. over injury [2] | average inhibition of intimal hyperplasia over the length of the injured artery ([2]; 3 mg/Kg, light fluence 125 J/cm^2) | acellularity (rat artery) ([1]; text b234, 1 μmol/Kg (printed 1 mol/Kg for 57))
1 | COC(=O)CCC1=C(C)c2cc3[n-]c(cc4nc(cc5[n-]c(cc1n2)c(CCC(=O)OC)c5C)C=C4C)cc3C.[Cl-].[Ga+3] [Example 4, Gallium Chloride Deuteroporphyrin Dimethyl Ester] | 95% | > 75% | >70% | – | –
2 | CCC1=C(C)C2=[N+]3C1=Cc1c(C)c(CC)c4[n]1[Ga-2]31([Cl])[n]3c(c(C)c(CCC(=O)NC)c3=CC3=[N+]1C(=C4)C(C)=C3CCC(=O)NC)=C2 [Example 121, Gallium Chloride Mesoporphyrin N-methyl Amide] | 60% | – | >70% | > 75% | –
3 | Gallium Chloride Mesoporphyrin Dimethyl Ester [Example 1] | 95% | > 80% | >80% | – | 95%
